Series [1] relates to Clostridium perfingens NCTC 8283. The class given is cell-based, Clostridium perfringens. To be noted: Comparison 1 is a reference value (suspension at not less than 1400 μg).
The test system of series [2] is Saccharomyces cerevisiae IFO 1950. In words: Antibacterial spectrum, MIC on Sabouraud Glucose agar medium. The class given is cell-based. To be noted: Comparison 1 is a reference value. The procedure:
[…] Additionally, as to the other α-amino acids used as the raw materials, flat plates for measuring susceptibility each of which contains a 500 to 20,000 μg/ml α-amino acid were prepared. […] The bacterial liquid for inoculation was drawn In lines and painted 1 to 2 cm on each flat plate for measuring susceptibility with a plastic loop, and incubated at 35° C. 1° C. for 18 to 20 hours. The lowest concentrations in which the painted parts were blocked to grow were defined as the minimum bacteriostasis concentrations of the antibacterial compositions, and the calcium oxide, the calcium hydroxide, and the α-amino acids used as the raw materials in the embodiments 1 through 16.
The minimum inhibitory concentrations to these typical kinds of bacteria were measured, however, the antibacterial compositions of the present invention are not to be restricted to the kinds of bacteria shown in the embodiments. Although the measuring method was similar to that of the embodiment 17, as the culture media for measuring susceptibility, Muller Hinton Agar (Difco) was used for enterococcus, cereus, salmonella, and pseudomonas aeruginosa; Brain Heart Infusion Agar (Difco) was used for lactobacillus; GAM agar medium (Nissui Pharmaceutical Co., Ltd.) was used for welsh; and Sabouraud Glucoss agar medium (Eiken Chemical Co., Ltd.) was used for saccharomyces.

The test system of series [3] is Salmonella entriditis IFO 3313. Briefly: Antibacterial spectrum, MIC on Muller Hinton Agar. To be noted: Comparison 1 is a reference value (suspension at not less than 1400 μg). The class given is cell-based, Salmonella enteritidis.
For series [4] the following is noted: cited from earlier work.
Series [5] deals with Lactobacillus plantarum (lactic acid bacterium) IFO 3070. Briefly: Antibacterial spectrum, MIC on Brain Heart Infusion Agar. To be noted: Comparison 1 is a reference value. The class given is cell-based.
Series [6] concerns Bacillus cereus IFO 13494. Briefly: Antibacterial spectrum, MIC on Muller Hinton Agar. The class given is cell-based. The note with it: Comparison 1 is a reference value (suspension at not less than 1400 μg).
The test system of series [7] is Escherichia coli IFO 3301. Briefly: Minimum inhibitory concentration, agar plate for measuring susceptibility. The class given is cell-based. To be noted: for MIC: Escherichia coli, IFO3301, read-out: Minimum Inhibitory Concentration CaO, Escherichia coli IFO 3301 (Gram-negative bacteria).
Series [8] has as its system Pseudomonas aeruginosa IFO 13275. In words: Antibacterial spectrum, MIC on Muller Hinton Agar. The class given is cell-based. To be noted: Comparison 1 is a reference value (suspension at not less than 1400 μg).
Series [9] deals with Staphylococcus aureus IFO 12732. In words: Minimum inhibitory concentration, agar plate for measuring susceptibility. The class given is cell-based. To be noted: for MIC: Staphylococcus aureus, IFO12732, read-out: Minimum Inhibitory Concentration CaO, Staphylococcus aureus IFO 12732 (Gram-positive bacteria).
The subject of series [10] is Enterococcus faecalis IFO 129B4. Briefly: Antibacterial spectrum, MIC on Muller Hinton Agar. The class given is cell-based. To be noted: Comparison 1 is a reference value (suspension at not less than 1400 μg).
A short description of series [11]: Antibacterial effect, test not described.
[12] abbreviates: Table 2, raw materials, amino acid plates held 500 to 20,000 μg/ml α-amino acid.

Values after ≈ are worked out from the molar mass of the structure shown. Like-named read-outs stand apart in the source and are kept apart here.

As to `[O]=[Ca]` [Comparison 1, calcium oxide], the “Minimum Inhibitory Concentration CaO, Clostridium perfringens” value in series [1] amounted to 5000 µg/mL. Besides, the “Minimum Inhibitory Concentration CaO, Saccgaromyces cervisiae” value in [2] was 625 µg/mL. Besides, the “Minimum Inhibitory Concentration CaO, Salmonella enteritidis” value in series [3] amounted to 2500 µg/mL. Also, the dissolves in water in [4] (20° C.) is 0.14 wt %. In addition, the water-solubility in series [4] (at 20° C.) is 1400 μg/gH2O. In series [5], the “Minimum Inhibitory Concentration CaO, Lactobachillus faecalis” value came to 313 µg/mL. In addition, the “Minimum Inhibitory Concentration CaO, Bacilluscereus” value in series [6] came out at 2500 µg/mL. Moreover, the “Minimum Inhibitory Concentration CaO; Escherichia coli IFO 3301 (Gram-negative bacteria)” value in [7] (setting [12]) was 1250 µg/mL. Further, the “Minimum Inhibitory Concentration CaO, Pseudomonas aeruginosa” value in series [8] is 2500 µg/mL. Also, the “Minimum Inhibitory Concentration CaO; Staphylococcus aureus IFO 12732 (Gram-positive bacteria)” value in [9] (setting [12]) amounted to 1000 µg/mL. Also, in series [10], the “Minimum Inhibitory Concentration CaO, Enterococcus faecalis” value came out at 5000 µg/mL.

For `[Ca+2].[OH-].[OH-]` [Comparison 2, calcium hydroxide], the “Minimum Inhibitory Concentration CaO; Escherichia coli IFO 3301 (Gram-negative bacteria)” value in series [7] amounted to 900 µg/mL. Moreover, the “Minimum Inhibitory Concentration CaO; Staphylococcus aureus IFO 12732 (Gram-positive bacteria)” value in [9] stood at 850 µg/mL.

On to `NCC(=O)O` [Comparison 3, glycine], for which the MIC in series [7] (setting [12]) and in series [9] (setting [12]) was greater than 10000 µg/mL throughout.

Regarding `C[C@H](N)C(=O)O` [Comparison 4, alanine], the MIC in series [7] (setting [12]) and in series [9] (setting [12]) was greater than 10000 µg/mL throughout.

On to `CC(C)[C@H](N)C(=O)O` [Comparison 5, valine], for which the MIC in series [7] (setting [12]) and in series [9] (setting [12]) was greater than 10000 µg/mL in each case.

Turning to `CC(C)C[C@H](N)C(=O)O` [Comparison 6, leucine], the MIC in series [7] (setting [12]) and in series [9] (setting [12]) was greater than 10000 µg/mL throughout.

`CC[C@H](C)[C@H](N)C(=O)O` [Comparison 7, isoleucine]: the MIC in [7] (setting [12]) and in series [9] (setting [12]) was greater than 10000 µg/mL throughout.

`C[C@@H](O)[C@H](N)C(=O)O` [Comparison 8, threonine]: the MIC in [7] (setting [12]) and in series [9] (setting [12]) was greater than 20000 µg/mL each time.

Consider `N[C@@H](CSSC[C@H](N)C(=O)O)C(=O)O` [Comparison 9, cystine], for which the MIC in series [7] (setting [12]) was greater than 20000 µg/mL; in series [9] (setting [12]), 20000 µg/mL (≈ 83.2 mM).

As for `CSCC[C@H](N)C(=O)O` [Comparison 10, Methionine], the MIC in series [7] (setting [12]) and in series [9] (setting [12]) was greater than 10000 µg/mL each time.

For the compound `NC(=O)C[C@H](N)C(=O)O` [Comparison 11, asparagine], the MIC in series [7] (setting [12]) and in series [9] (setting [12]) was greater than 20000 µg/mL throughout.

As for `NC(=O)CC[C@H](N)C(=O)O` [Comparison 12, glutamine], the MIC in series [7] (setting [12]) and in [9] (setting [12]) was greater than 20000 µg/mL throughout.

`N[C@@H](Cc1c[nH]cn1)C(=O)O` [Comparison 14, hystidine]: in series [7] (setting [12]), the “Minimum Inhibitory Concentration CaO; Escherichia coli IFO 3301 (Gram-negative bacteria)” value was greater than 20000 µg/mL. Moreover, the “Minimum Inhibitory Concentration CaO; Staphylococcus aureus IFO 12732 (Gram-positive bacteria)” value in [9] (setting [12]) was greater than 20000 µg/mL.

As to `N[C@@H](CC(=O)[O-])C(=O)[O-].[Ca+2]` [aspartate calcium], in [11], the “antibacterial effect / antibacterial property” value is reported as “did not have antibacterial property”.

On to `N[C@@H](CCC(=O)[O-])C(=O)[O-].[Ca+2]` [calcium glutamate], for which, in series [11], the “antibacterial effect / antibacterial property” value is on record as “did not have antibacterial property”.

(Values after US20080146641A1, “ANTIBACTERIAL COMPOSITION” (priority 2001, published 2008).)
